Here are results for one compound from patent publication US20090232735A1, “USE OF FRUCTOSE-BASED THERAPIES FOR THE TREATMENT OF CANCER” (CEDARS-SINAI MEDICAL CENTER, priority 2005, published 2009).

Structures are written as SMILES.

For data set [1], the system named is AP-1 activation in a primary culture of a pancreatic tumor. Description: AP-1 probe binding assay, primary pancreatic tumor culture. Type of data set: cell-based, human. The following applies: 5.5 mM sugar. As for the experimental part:
FIG. 24 depicts luciferase activity of PANC-1 cells and primary culture of surgically resected pancreatic tumor cells in accordance with an embodiment of the present invention. PANC-1 pancreatic cancer cells and a primary culture of a surgically resected pancreatic tumor were incubated in 2 mM glucose, 5.5 mM glucose or 5.5 mM fructose for 48 h, after which nuclear extracts were incubated with a biotinylated AP-1 probe, and detected by an antibody-linked colorimetric method. *, p<0.01
In separate experiments PANC-1 cells, and primary cultures of surgically resected pancreatic tumors were incubated in 2 mM glucose, or 5.5 mM glucose or 5.5 mM fructose for 48 h, after which nuclear extracts were incubated with a biotinylated AP-1 probe in binding buffer. AP-1/AP1 probe complexes were next conjugated to a streptavidin-coated assay plate and detected using an AP-1 specific antibody, followed by binding of a horseradish-peroxidase conjugated secondary antibody, and detection by a colorimetric reagent.

The test system of data set [2] is MAPK pathway (pERK, pRSK, pMEK). Description: Western blot of MAPK pathway in PANC-1 cells. Type of data set: cell-based, human. The following applies: PANC-1, 5.5 mM sugar, 48 h. The method, then:
FIG. 23 depicts Western blot analysis examining MAPK pathway expression in accordance with an embodiment of the present invention. PANC-1 pancreatic cancer cells were incubated in 2 mM glucose, 5.5 mM glucose or 5.5 mM fructose for 48 hours, after which Western blot analysis on total protein lysates was employed to examine phosphorylated MEK (pMEK), pRSK, and pCREB, and corresponding total MEK, RSK, and CREB levels.
Several signal transduction pathways may be involved in fructose-mediated pancreatic cancer growth but given the importance of the MAPK pathway in proliferation, the inventors believed that MAPK was involved. In the MAPK pathway, MEK mediated phosphorylation of the p44/42 MAP kinase (ERK) is the first step in this cascade, which results in phosphorylation of p90^Rsk, leading to transcriptional activation of CREB, and AP1, activating gene transcription and promoting cellular growth. The inventors employed Western blot analysis to examine MAPK pathway expression in pancreatic cancer cells incubated in 2 mM glucose, 5.5 mM glucose, and 5.5 mM fructose for 48 hours. Levels of the active phosphorylated proteins, pERK, pRSK, and pMEK were normalized to total ERK, RSK, and MEK levels respectively, and compared between the fructose-, and glucose-treated PANC-1 cells.

The nature of data set [3]: Serum fructose and glucose in normal volunteers after two cans of soda. Type of data set: in vivo, human. As for the experimental part:
FIG. 37 depicts fasting serum fructose and glucose levels in patients with pancreatic cancer and in normal volunteers in accordance with an embodiment of the present invention. (a) Fasting serum fructose and glucose levels in 6 patients with pancreatic cancer on the morning of resection. (b) Serum fructose, and glucose levels (Mean±SEM) in 3 normal volunteers after a 10 h fast, followed by ingestion of two cans of soda, containing 76 g of carbohydrate in the form of high fructose corn syrup (55% fructose, 45% glucose).
The normal circulating concentrations of fructose are unknown. […] Briefly, aliquots (20 μl) of fructose standards (0.1, 0.5, 1, 2, 4, 6, and 8 mM) or unknown serum samples were mixed with 5 μl of a stock solution (125 U/ml) of the enzyme fructose dehydrogenase (Sigma) in 175 μl citric acid (0.05 M) phosphate (0.09 M) buffer (pH 4.5), and 20 μl of 3-(4,5-dimethylthiazol-2-yl)-2,5-diphenyltetrazolium bromide (MTT), and phenazine methosulfate (Promega), incubated for 30 minutes, after which absorbance at 570 nm was recorded in a 96-well spectrophotometer. […] As the first analysis, in accordance with institutional review board guidelines, the inventors obtained 32 serum samples randomly selected from anonymous inpatients at Cedars-Sinai Medical Center. The inventors also measured glucose in these same samples using standard glucose oxidase based methods. No details of medical condition were known for these patients, and as depicted in FIG. 36, in 24 of these 32 patients, serum fructose was greater than 5 mM. This intriguing result prompted the inventors to examine serum fructose levels in two other settings. Firstly, the inventors drew fasting blood samples from 6 patients with pancreatic cancer on the morning of surgical tumor resection. As depicted in FIG. 37a, 4 of these 6 patients had fasting serum fructose levels >5 mM, and two patients had serum fructose concentrations of ˜12 mM. The significance of these findings in pancreatic cancer patients is at this point unclear, but the inventors believe that the fructose-mediated pro-proliferative effects seen in pancreatic cancer cells in vitro are of significance, given the circulating fructose concentrations the inventors measured. In a further experiment, 3 normal volunteers fasted for 10 hours, an indwelling cannula was placed in a forearm vein, baseline fasting blood drawn, after which they drank two cans of regular soda, which contained 76 g of sugars, almost exclusively high fructose corn syrup. This source of carbohydrate was chosen to approximate to equivalent glucose concentrations used in a standard 75 g glucose tolerance test, and to bear relevance that dietary sources of high content refined fructose may pose an independent risk factor for pancreatic cancer growth.

Data set [4] relates to AP1 activation in MCF-7 breast cancer cells. Description: ELISA-based transbinding AP1 assay in breast cancer cells. Type of data set: cell-based, human. Conditions: 5.5 mM sugar. The method, then: FIG. 12 depicts an increase in AP1 activation in fructose-treated cells in accordance with an embodiment of the present invention. MCF-7 breast cancer cells were incubated in 2 mM glucose, or 5 mM glucose or fructose for 24 h, after which nuclear extracts were incubated with a biotinylated AP-1 probe in binding buffer. AP-1/AP1 probe complexes were next conjugated to a streptavidin-coated assay plate and detected using an AP-1 specific antibody, followed by binding of a horseradish-peroxidase conjugated secondary antibody, and detection by a colorimetric reagent. *, p<0.001.
Although several signal transduction pathways are likely involved in the fructose-mediated enhanced breast cancer growth and while not wishing to be bound by any particular theory, the inventors believe that the MAP-kinase pathway is involved. The inventors have used Western blot analysis to examine the MAPK pathway in breast cancer cells incubated in 2 mM glucose, 5.5 mM glucose, and 5.5 mM fructose for 48 hours. […] Activation of MEK, and subsequently ERK results in phosphorylation of p90^Rsk, which leads to transcriptional activation of CREB and AP1, which bind to cAMP or AP1 response elements respectively, activating gene transcription and promoting cellular growth.

Regarding `O=C(CO)[C@@H](O)[C@H](O)[C@H](O)CO` [fructose], the “increase in AP-1 activation compared to 2 mM glucose” value in data set [1] is on record as 2.1 fold. Further, the “pERK, pRSK, and pMEK expression” value in data set [2] was “highest pERK, pRSK, and pMEK expression”. For the same compound, the “mean fasting fructose level” value in data set [3] (3 normal volunteers, 10 h fast, before soda) came to 2.66 mM. For the same compound, in data set [3] (30 minutes after two sodas), the “mean serum fructose peak” value is listed as 17 mM. Further, the serum fructose levels entry in data set [3] (for the 2 hour duration of blood sampling after two sodas) is given as “greater than 5 mM”. For the same compound, the “mean serum fructose levels” value in data set [3] (within 15 minutes after two sodas (76 g sugars, high fructose corn syrup)) turned out to be 16.5 mM. Further, the “increase in AP1 activation” value in data set [4] is listed as 3 fold.
